Experimental findings from ChEMBL document CHEMBL3882737, “Fused heterocyclic compounds as ion channel modulators” (2013) are described below.

The subject of data set [1] is Oryctolagus cuniculus. Kind of data set: Anti-ischemic activity in anesthetized New Zealand rabbit heart assessed as reduction in ischemia-induced ST segment elevation by measuring MAPD90_ATX levels at 1 uM plasma concentration at 0.1 to 0.4 mg/kg, iv bolus dose dosed 30 mins before ischemia followed by reperfusion. The format is functional.
Data set [2] has as its system Oryctolagus cuniculus. In words: Effect on blood pressure in anesthetized New Zealand rabbit ischemia-induced ST segment elevation model at 0.1 to 0.4 mg/kg, iv bolus dose dosed 30 mins before ischemia followed by reperfusion. It counts as ADME, organism-based. The settings on record: in vivo, 0.5 h.
Data set [3] relates to Oryctolagus cuniculus. In words: Anti-ischemic activity in anesthetized New Zealand rabbit heart assessed as reduction in ischemia-induced myocardial electrical dysfunction at 0.1 to 0.4 mg/kg, iv bolus dose dosed 30 mins before ischemia followed by reperfusion. The format is functional, organism-based.
Data set [4] relates to Oryctolagus cuniculus. Kind of data set: Anti-ischemic activity in anesthetized New Zealand rabbit heart assessed as reduction in ischemia-induced ST segment elevation at 0.1 to 0.4 mg/kg, iv bolus dose dosed 30 mins before ischemia followed by reperfusion. It counts as functional, organism-based.
In data set [5] the test system is Oryctolagus cuniculus. In words: Effect on ECG intervals in anesthetized New Zealand rabbit ischemia-induced ST segment elevation model at 0.1 to 0.4 mg/kg, iv bolus dose dosed 30 mins before ischemia followed by reperfusion. It counts as ADME, organism-based. As to conditions: in vivo, 0.5 h.
Data set [6] deals with Oryctolagus cuniculus. Kind of data set: Effect on heart rate in anesthetized New Zealand rabbit ischemia-induced ST segment elevation model at 0.1 to 0.4 mg/kg, iv bolus dose dosed 30 mins before ischemia followed by reperfusion. It counts as ADME, organism-based. The settings on record: in vivo, 0.5 h.
The target in data set [7] is Sodium channel protein type 5 subunit alpha (Homo sapiens, UniProt Q14524). In words: Inhibition of human NaV1.5 expressed in HEK293 cells assessed as blocking of tefluthrin-induced late sodium currents at 1 uM using -20 mV voltage steps at holding potential of -120 mV by whole cell patch clamp Qpatch method. The format is cell-based.
Chain of Sodium channel protein type 5 subunit alpha (Q14524 whole entry): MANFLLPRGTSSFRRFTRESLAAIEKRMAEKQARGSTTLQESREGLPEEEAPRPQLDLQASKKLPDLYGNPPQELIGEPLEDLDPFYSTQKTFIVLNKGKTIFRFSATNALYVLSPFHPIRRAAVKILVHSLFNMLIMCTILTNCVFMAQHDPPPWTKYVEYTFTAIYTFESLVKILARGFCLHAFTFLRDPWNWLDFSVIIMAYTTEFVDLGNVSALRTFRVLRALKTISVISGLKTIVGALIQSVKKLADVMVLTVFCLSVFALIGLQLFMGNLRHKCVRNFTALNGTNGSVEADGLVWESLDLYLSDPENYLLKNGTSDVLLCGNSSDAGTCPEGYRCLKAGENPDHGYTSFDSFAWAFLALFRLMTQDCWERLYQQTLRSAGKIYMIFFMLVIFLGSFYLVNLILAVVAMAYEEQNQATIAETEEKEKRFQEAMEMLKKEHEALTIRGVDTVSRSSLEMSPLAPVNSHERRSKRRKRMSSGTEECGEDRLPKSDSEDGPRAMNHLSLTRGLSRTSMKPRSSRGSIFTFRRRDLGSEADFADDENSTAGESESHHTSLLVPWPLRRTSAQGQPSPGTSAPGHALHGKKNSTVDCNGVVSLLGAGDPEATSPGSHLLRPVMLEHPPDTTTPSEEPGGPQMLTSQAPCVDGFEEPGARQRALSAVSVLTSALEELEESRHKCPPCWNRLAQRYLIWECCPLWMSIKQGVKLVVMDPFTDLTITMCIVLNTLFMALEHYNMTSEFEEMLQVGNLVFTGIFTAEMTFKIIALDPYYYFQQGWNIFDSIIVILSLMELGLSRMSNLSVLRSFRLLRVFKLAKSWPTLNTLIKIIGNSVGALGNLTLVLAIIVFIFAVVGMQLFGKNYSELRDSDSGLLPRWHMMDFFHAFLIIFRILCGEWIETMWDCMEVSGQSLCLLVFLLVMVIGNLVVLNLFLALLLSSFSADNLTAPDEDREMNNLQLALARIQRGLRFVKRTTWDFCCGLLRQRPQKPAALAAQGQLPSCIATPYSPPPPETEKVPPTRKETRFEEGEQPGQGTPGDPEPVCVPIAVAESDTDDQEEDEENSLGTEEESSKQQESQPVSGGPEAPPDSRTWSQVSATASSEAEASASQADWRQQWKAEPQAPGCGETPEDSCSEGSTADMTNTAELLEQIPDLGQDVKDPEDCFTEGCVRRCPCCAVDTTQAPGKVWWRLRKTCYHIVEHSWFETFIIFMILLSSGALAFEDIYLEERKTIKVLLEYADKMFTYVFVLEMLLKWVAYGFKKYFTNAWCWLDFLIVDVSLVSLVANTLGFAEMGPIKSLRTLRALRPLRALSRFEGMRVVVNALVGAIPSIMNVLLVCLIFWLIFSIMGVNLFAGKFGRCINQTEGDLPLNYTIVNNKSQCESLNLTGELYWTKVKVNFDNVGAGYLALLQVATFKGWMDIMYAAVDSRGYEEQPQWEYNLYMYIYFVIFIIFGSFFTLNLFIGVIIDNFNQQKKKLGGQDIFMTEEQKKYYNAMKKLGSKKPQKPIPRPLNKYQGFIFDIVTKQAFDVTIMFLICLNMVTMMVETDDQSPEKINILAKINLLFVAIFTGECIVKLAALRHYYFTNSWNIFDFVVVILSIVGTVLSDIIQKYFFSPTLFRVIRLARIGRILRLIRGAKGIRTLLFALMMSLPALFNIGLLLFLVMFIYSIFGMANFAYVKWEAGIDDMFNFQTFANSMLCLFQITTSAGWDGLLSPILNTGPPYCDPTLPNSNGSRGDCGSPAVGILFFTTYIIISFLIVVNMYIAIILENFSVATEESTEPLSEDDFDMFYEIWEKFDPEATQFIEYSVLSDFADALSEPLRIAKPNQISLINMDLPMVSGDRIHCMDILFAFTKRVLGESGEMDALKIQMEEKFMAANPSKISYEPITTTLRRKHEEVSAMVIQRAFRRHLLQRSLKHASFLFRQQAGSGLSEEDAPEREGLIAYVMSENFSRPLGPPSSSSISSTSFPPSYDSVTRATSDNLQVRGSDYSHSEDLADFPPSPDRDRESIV
The target of data set [8] is NaV1.5 (peak sodium current) (Homo sapiens, UniProt Q14524). Kind of data set: Inhibition of human NaV1.5 expressed in HEK293 cells assessed as use dependent blocking of cell membrane depolarization-induced peak sodium currents at 1 uM at 0 mV and 3 Hz stimulation at holding potential of -100 mV by whole cell patch clamp Qpatch method. It counts as cell-based. The settings on record: HEK293 cells that express human NaV1.5.
Chain of NaV1.5 (peak sodium current) (Q14524 whole entry): as above

Take `O=C1c2cc(C#Cc3ccc(C(F)(F)F)cc3)ccc2OCCN1Cc1ncccn1`: the “inhibition (INH)” value in data set [1] is -49%.
`Cc1ccnc(CN2CCOc3cnc(-c4ccc(OC(F)(F)F)cc4)cc3C2=O)n1`: the “inhibition (INH)” value in data set [1] is recorded as -34%.
For `O=C1c2cc(-c3ccc(C(F)(F)F)cc3)ccc2OCCN1Cc1ncccn1`, the Activity result in data set [2], in data set [5] and in data set [6] was “Non-Toxic” each time. In addition, in data set [1], the “inhibition (INH)” value is on record as -62%. Also, the inhibition entry in data set [3] and in data set [4] was “Dose-dependent effect” in each case.
`COc1cc(OC)nc(CN2CCOc3ccc(-c4ccc(OC(F)(F)F)cc4)cc3C2=O)n1`: the “inhibition (INH)” value in data set [1] is on record as -27%.
The same measure, in the same setting: the result for `O=C1c2cc(C#Cc3ccc(OC(F)(F)F)cc3)ccc2OCCN1Cc1ncccn1` reads -25%; that for `O=C1c2cc(-c3ccc(Cl)cc3)ccc2OCCN1Cc1ncccn1`, -69%; that for `O=C1c2cc(-c3ccc(OC(F)(F)F)cc3)ccc2OCCN1Cn1cc(Cl)cn1`, -23%.
Regarding `O=C(c1ncccn1)N1CCOc2ccc(-c3ccc(OC(F)(F)F)cc3)cc2C1`, the “inhibition (INH)” value in data set [1] is -47%.
Consider `O=C1c2cc(-c3ccc(C(F)(F)F)cc3)ccc2OCCN1Cc1cn2ccccc2n1`, for which the “inhibition (INH)” value in data set [1] was -49%. Further, in data set [7], the inhibition at 1 µM fell in the range of 32 to 33%.
With `CC(C)(C)c1ccc(-c2ccc3c(c2)C(=O)N(Cc2ncccn2)CCO3)cc1`, the “inhibition (INH)” value in data set [1] was -50%.
Consider `O=C1c2cc(-c3ccc(OC(F)(F)F)cc3)ccc2OCCN1Cc1ncccn1` [ELECLAZINE], for which the Activity result in data set [2], in data set [5] and in data set [6] was “Non-Toxic” throughout. Further, the “inhibition (INH)” value in data set [1] was -56%. For the same molecule, the inhibition result in data set [3] and in data set [4] was “Dose-dependent effect” throughout.
Consider `O=C1c2cc(-c3ccc(C(F)(F)F)cc3F)ccc2OCCN1Cc1ncccn1`, for which the inhibition at 1 µM in data set [8] lay in the range of 10 to 11%.
Consider `O=C1c2cc(-c3ccc(OC(F)(F)F)cc3)ccc2OCCN1Cc1ccc2ccccc2n1`, for which, in data set [1], the “inhibition (INH)” value was -10%.
